# Experimental data reported in publication PMC6158189, “A pharmacological probe identifies cystathionine β-synthase as a new negative regulator for ferroptosis” (Cell Death & Disease, 2018).
# Where “and” joins values, the source holds several entries; their conditions need not be identical. Equal entries are not always repeated.
# What was measured:
# HepG2 cells = assay: lipid ROS (BODIPY 581/591 C11, flow cytometry); format: cell-based, human; settings: 24 h, HepG2
# Procedure: To detect lipid peroxidation upon treatment with CH004, HepG2 cells or mouse embryonic fibroblasts (MEF) were seeded in 12-well plates with ~ 1.8 × 10^5 cells per well for 24 h. After treatment with the inhibitor for another 24 h, cells were stained with BODIPY® 581/591 C11 (Invitrogen) for 1 h at a final concentration of 2 μM at 37 °C[57]. The cells were then resuspended in an appropriate amount of PBS after being washed once with PBS. Lipid peroxidation, i.e., lipid ROS, was analyzed by detection of the fluorescence using an LSR Fortessa flow cytometer. The data were recorded at 530/30 nm (green fluorescent) and 670/30 nm (red fluorescent) wavelengths after excitation at 488 nm. A minimum of 20000 events was used for the analysis. All the experiments were independently repeated twice in triplicate.
# Figure S15. The mode of actions for CH004 in cells. […] Indicated HEK293T stable cell lines were treated with CH004 at a concentration of 10 µM for 24 h, and the cell viability was then measured using the CellTiter96® Aqueous One Solution Cell Proliferation Assay (Promega). Means ± SDs (n=3). (B-C) CH004 or erastin triggers ferroptosis in mouse embryonic fibroblasts (MEF). WT MEF cells were treated with CH004 or erastin at indicated concentrations in the presence or the absence of 500 µM DFO for 24 h before measuring the lipid ROS with 2 μM BODIPY® 581/591 C11 (Materials and methods). […] Erastin at micromolar concentrations were incubated with HepG2 cells for 24 h before measuring the lipid ROS (see above and Materials and methods). […] Means ± SDs (n=3). […] CH004 or erastin at a concentration of 20 µM was incubated with HepG2 cells for 48 h or 72 h in the presence or the absence of 100 µM DFO. The cell viability was accordingly quantified using the CellTiter96® Aqueous One Solution Cell Proliferation Assay (Promega) and the results were shown as percentages of DMSO (control, 100%). Means ± SDs (n=3). All the experiments were independently repeated at least twice and one representative result is present. Table S1 The inhibitory effects of CH004 on purified hCBS, hCSE and hDDC.
# hCBS-FL = biological target: T1, hCBS-FL (Homo sapiens, UniProt P35520); assay: purified hCBS full-length enzyme assay; format: biochemical; design: human CBS or hCSE full-length (CBS-FL or CSE) was subcloned into pGEX-KG, pcDNA3 or pCDH vector; GST (N); made in house; host or cells: E. coli BL21; settings: standard conditions
# T1 sequence (P35520 1-551): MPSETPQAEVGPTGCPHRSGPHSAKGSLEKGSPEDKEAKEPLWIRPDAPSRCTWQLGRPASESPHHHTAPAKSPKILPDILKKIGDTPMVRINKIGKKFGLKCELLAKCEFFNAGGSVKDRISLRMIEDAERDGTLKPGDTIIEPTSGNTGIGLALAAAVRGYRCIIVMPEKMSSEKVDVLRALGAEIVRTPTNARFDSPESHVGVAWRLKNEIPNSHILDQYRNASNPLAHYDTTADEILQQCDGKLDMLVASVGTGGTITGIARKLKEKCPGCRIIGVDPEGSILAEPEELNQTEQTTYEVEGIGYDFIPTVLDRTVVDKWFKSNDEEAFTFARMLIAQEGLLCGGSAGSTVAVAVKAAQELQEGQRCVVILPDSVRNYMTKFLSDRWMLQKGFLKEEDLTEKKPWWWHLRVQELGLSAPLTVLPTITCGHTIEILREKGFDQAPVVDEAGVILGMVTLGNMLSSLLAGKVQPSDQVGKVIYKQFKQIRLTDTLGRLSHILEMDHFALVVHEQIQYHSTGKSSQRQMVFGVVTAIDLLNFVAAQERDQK
# Procedure: The IC50 values of CH004 for hCBS-413, hCBS-413 mutants, hCBS-FL, hCSE or hDDC were determined according to the standard assay conditions otherwise indicated.
# ^2The IC50 were determined for hCBS-FL.
smiles,measurement,setting,value
"Cn1nc(Cc2ccccc2)nc2c(=O)n(C)c(=O)nc1-2 [CH004, 3-benzyl-1,6-dimethylpyrimido[5,4-e][1,2,4]triazine-5,7(1H,6H)-dione]",increase of lipid ROS,HepG2 cells; 10 μM,~ 250%
same,"lipid peroxidation (lipid ROS), dose dependence",HepG2 cells,dose-dependently increased
same,IC50,hCBS-FL,~0.59 µM and 0.59 µM
